Assay results as given in patent US20220023300A1, “THERAPEUTIC AND PROPHYLACTIC METHOD FOR TUMOR TREATABLE WITH ENDOCRINE THERAPY BY COMBINED USE OF FIBROBLAST GROWTH FACTOR RECEPTOR INHIBITOR WITH ENDOCRINE THERAPY” (TAIHO PHARMACEUTICAL CO., LTD., priority 2018, published 2022).

What was measured:
[1] = test system: MDA-MB-134VI cells; test: Cell growth-inhibitory effect of combined use (T/C), CellTiter-Glo 2.0; conditions: for viability at 0.1 µM: Homo sapiens, MDA-MB-134-VI, 120 h, read-out: T/C (treated/control) cell viability
Description: The cell viability was measured using CellTiter-Glo 2.0 (Promega). […] The number of cells seeded was 500 cells/80 μL per well. […] After drug addition, the cells were further incubated at 37° C. and 5% CO2 for 120 hours. Experiments were carried out in triplicate (3 wells per treatment group). The cell viability was calculated by adding 100 μL of CellTiter-Glo 2.0 reagent per well, incubating at room temperature for 30 minutes, and then measuring the chemiluminescence of each well with a plate reader (EnSpire). The cell viability in the case of drug addition was calculated as a ratio with respect to the control group, which was set to 100%, according to the following formula, and the average value of the data of three wells was used for the analysis.
Cell viability (%)=(chemiluminescence in the case of drug addition)/(chemiluminescence of control group)×100

[2] = test system: breast cancer; conditions: phase II; subpopulation of FGF pathway-amplified breast cancer patients; cited from earlier work

| Compound | T/C (treated/control) cell viability ([1]; MDA-MB-134VI, drug alone at 1 μM, 120 hours) | viability at 0.1 µM [1] | median value of the mean progression-free survival (PFS) [2] |
| --- | --- | --- | --- |
| 4-hydroxytamoxifen | 65% | – | – |
| C=CC(=O)N1CC[C@H](n2nc(C#Cc3cc(OC)cc(OC)c3)c3c(N)ncnc32)C1 [compound 1, (S)-1-(3-(4-amino-3-((3,5-dimethoxyphenyl)ethynyl)-1H-pyrazolo[3,4-d]pyrimidin-1-yl)pyrrolidin-1-yl)prop-2-en-1-one] | – | 35% | – |
| C[C@]12CC[C@@H]3c4ccc(O)cc4C[C@@H](CCCCCCCCC[S+]([O-])CCCC(F)(F)C(F)(F)F)[C@H]3[C@@H]1CC[C@@H]2O (stereo partly shown) [fulvestrant] | – | 75% | 5.5 months |
